Drawing on patent publication US9260700B2 (priority 2011, dated 2016), this text covers Km and kcat for two compounds.

The target of experiment [1] is Magnaporthe oryzae bilirubin oxidase (BOD), produced in Pichia pastoris, SEQ. ID. No.3 (SEQ. ID. No.1 with additional N-terminal serine) (Pyricularia oryzae, UniProt G4MQU0). It is filed as biochemical. To be noted: 37° C., citrate-phosphate buffer 50 mM pH 3.6, bilirubin 0 to 100 μM.
Experiment [2] deals with Myrothecium verrucaria bilirubin oxidase (BOD), produced in Pichia pastoris. To be noted: pH 6.5, with respect to ABTS; cited from earlier work.

By Km is commonly meant the concentration of substrate that gives half-maximal velocity. Usually kcat stands for the maximal rate divided by the concentration of active sites.

In the case of conjugated bilirubin, in experiment [1], the Km was determined as 18.5 µM and the kcat turned out to be 28 s⁻¹.
In the case of `CCn1c(=NN=c2sc3cc(S(=O)(=O)O)ccc3n2CC)sc2cc(S(=O)(=O)O)ccc21` [ABTS, 2,2′-azino-bis(3-ethylbenzothiazoline-6-sulphonic acid)], the Km in experiment [2] is 340 µM.
